Results as given in patent US20250215101A1, “DR5 Agonist and PLK1 Inhibitor or CDK Inhibitor Combination Therapy” (Inhibrx Biosciences, Inc., priority 2022, published 2025).
pEC50: −log10 of the molar value.

Key:
Assay in all cases: Cytotoxicity assay, colorectal cancer cell line panel, onvansertib +/- 1 nM INBRX-109
Type in all cases: cell-based
[1] = tested on: RKO; settings: for pEC50: Homo sapiens
Description: (§1) Monolayer cultures of each cell line were harvested for compound screening as detailed below.
(§2) Also on day 2, test and control articles were added.
(§3) On day 4, viability measurements were taken. […] Data was graphed in GraphPad Prism 9.
(§4) The results for a panel of colorectal cancer cell lines are shown in Table 3 and FIGS. 4-6, and the results for a panel of pancreatic cell lines are shown in Table 4 and FIGS. 7 and 8.

[2] = tested on: Hutu 80; settings: for pEC50: Homo sapiens, HuTu80, Hutu 80; for Max Cytotox at 600 nM: Hutu 80
Description: as §1, §2, §3, §4

[3] = tested on: LoVo; settings: for pEC50: Homo sapiens
Description: as §1, §2, §3, §4

[4] = tested on: SW-837; settings: for pEC50: Homo sapiens, SW837, SW-837; for Max Cytotox at 600 nM: SW-837
Description: as §1, §2, §3, §4

[5] = tested on: SW-403; settings: for pEC50: Homo sapiens, SW-403, SW-403; for Max Cytotox at 600 nM: SW-403
Description: as §1, §2, §3, §4

[6] = tested on: LS 123; settings: for pEC50: Homo sapiens, LS-123, LS 123; for Max Cytotox at 600 nM: LS 123
Description: as §1, §2, §3, §4

[7] = tested on: COLO320DM; settings: for pEC50: Homo sapiens, COLO 320DM
Description: as §1, §2, §3, §4

[8] = tested on: T84; settings: for pEC50: Homo sapiens, T84, T84; for Max Cytotox at 600 nM: T84
Description: as §1, §2, §3, §4

[9] = tested on: SW-480; settings: for pEC50: Homo sapiens, SW480, SW-480; for Max Cytotox at 600 nM: SW-480
Description: as §1, §2, §3, §4

[10] = tested on: HT-55; settings: for Max Cytotox at 600 nM: HT-55; for pEC50: Homo sapiens, HT55, HT-55
Description: as §1, §2, §3, §4

[11] = tested on: SK-CO-1; settings: for pEC50: Homo sapiens, SK-CO-1, SK-CO-1; for Max Cytotox at 600 nM: SK-CO-1
Description: as §1, §2, §3, §4

[12] = tested on: SNU-C2A
Description: as §1, §2, §3, §4

[13] = tested on: DLD-1; settings: for Max Cytotox at 600 nM: DLD-1; for pEC50: Homo sapiens, DLD-1, DLD-1
Description: as §1, §2, §3, §4

[14] = tested on: SW-948; settings: for pEC50: Homo sapiens, SW948, SW-948; for Max Cytotox at 600 nM: SW-948
Description: as §1, §2, §3, §4

With `CN1CCN(c2ccc(OC(F)(F)F)c(Nc3ncc4c(n3)-c3c(c(C(N)=O)nn3CCO)CC4)c2)CC1` [Onvansertib] the pEC50 ([1]; onvansertib + 1 nM INBRX-109) was 7.26, the pEC50 ([1]; onvansertib only) was 7.07 and the “Max Cytotox at 600 nM” value ([1]; onvansertib + 1 nM INBRX-109) was 93.8%. For the same compound, the “Max Cytotox at 600 nM” value ([1]; onvansertib only) was 65.7%, the pEC50 ([2]; onvansertib + 1 nM INBRX-109) was 6.87 and the pEC50 ([2]; onvansertib only) was 6.86. For the same compound, the “Max Cytotox at 600 nM” value ([2]; onvansertib + 1 nM INBRX-109) was 86.5%, the “Max Cytotox at 600 nM” value ([2]; onvansertib only) was 85.4% and the pEC50 ([3]; onvansertib + 1 nM INBRX-109) was 7.38. For the same compound, the pEC50 ([3]; onvansertib only) was 7.47, the “Max Cytotox at 600 nM” value ([3]; onvansertib + 1 nM INBRX-109) was 90.8% and the “Max Cytotox at 600 nM” value ([3]; onvansertib only) was 29.6%. The pEC50 ([4]; onvansertib + 1 nM INBRX-109) was 6.74, the pEC50 ([4]; onvansertib only) was 6.64 and the “Max Cytotox at 600 nM” value ([4]; onvansertib + 1 nM INBRX-109) was 73.5%. The “Max Cytotox at 600 nM” value ([4]; onvansertib only) was 24.5%, the pEC50 ([5]; onvansertib + 1 nM INBRX-109) was 7.19 and the pEC50 ([5]; onvansertib only) was 7.20. The “Max Cytotox at 600 nM” value ([5]; onvansertib + 1 nM INBRX-109) was 89.0%, the “Max Cytotox at 600 nM” value ([5]; onvansertib only) was 46.4% and the pEC50 ([6]; onvansertib + 1 nM INBRX-109) was 6.77. The pEC50 ([6]; onvansertib only) was 6.82, the “Max Cytotox at 600 nM” value ([6]; onvansertib + 1 nM INBRX-109) was 24.1% and the “Max Cytotox at 600 nM” value ([6]; onvansertib only) was 9.6%. For the same compound, the pEC50 ([7]; onvansertib + 1 nM INBRX-109) was 6.55, the pEC50 ([7]; onvansertib only) was 6.42 and the “Max Cytotox at 600 nM” value ([7]; onvansertib + 1 nM INBRX-109) was 79.6%. For the same compound, the “Max Cytotox at 600 nM” value ([7]; onvansertib only) was 58.3%, the pEC50 ([8]; onvansertib + 1 nM INBRX-109) was 6.53 and the pEC50 ([8]; onvansertib only) was 6.45. For the same compound, the “Max Cytotox at 600 nM” value ([8]; onvansertib + 1 nM INBRX-109) was 62.9%, the “Max Cytotox at 600 nM” value ([8]; onvansertib only) was 32.1% and the pEC50 ([9]; onvansertib + 1 nM INBRX-109) was 7.03. For the same compound, the pEC50 ([9]; onvansertib only) was 6.90, the “Max Cytotox at 600 nM” value ([9]; onvansertib + 1 nM INBRX-109) was 86.3% and the “Max Cytotox at 600 nM” value ([9]; onvansertib only) was 40.7%. For the same compound, the “Max Cytotox at 600 nM” value ([10]; onvansertib + 1 nM INBRX-109) was 87.9%, the “Max Cytotox at 600 nM” value ([10]; onvansertib only) was 41.8% and the pEC50 ([10]; onvansertib + 1 nM INBRX-109) was 7.36. It also gave a pEC50 ([10]; onvansertib only) of 7.29, a pEC50 ([11]; onvansertib + 1 nM INBRX-109) of 6.95 and a pEC50 ([11]; onvansertib only) of 6.95. The “Max Cytotox at 600 nM” value ([11]; onvansertib + 1 nM INBRX-109) was 94.2%, the “Max Cytotox at 600 nM” value ([11]; onvansertib only) was 52.8% and the pEC50 ([12]; onvansertib + 1 nM INBRX-109) was 7.37. The “Max Cytotox at 600 nM” value ([12]; onvansertib + 1 nM INBRX-109) was 78.0%, the pEC50 ([12]; onvansertib only) was 7.14 and the “Max Cytotox at 600 nM” value ([12]; onvansertib only) was 42.9%. For the same compound, the “Max Cytotox at 600 nM” value ([13]; onvansertib + 1 nM INBRX-109) was 90.4%, the “Max Cytotox at 600 nM” value ([13]; onvansertib only) was 45.8% and the pEC50 ([13]; onvansertib + 1 nM INBRX-109) was 6.74. For the same compound, the pEC50 ([13]; onvansertib only) was 6.55, the pEC50 ([14]; onvansertib + 1 nM INBRX-109) was 7.63 and the pEC50 ([14]; onvansertib only) was 7.01. For the same compound, the “Max Cytotox at 600 nM” value ([14]; onvansertib + 1 nM INBRX-109) was 99.0% and the “Max Cytotox at 600 nM” value ([14]; onvansertib only) was 43.2%.
